Assay results from patent publication US8574837B2, “System for screening agonists/antagonists of cellular signaling pathways” (President and Fellows of Harvard College, priority 2008, dated 2013).

What was measured:
[1] = molecular target: T1, Smo (Homo sapiens, UniProt Q99835); test: Smo translocation assay (A1::Smo::GFP / Smo colocalization with Arl13b at the primary cilium); assay type: cell-based; settings: for Smo translocation to the primary cilium, agent applied alone: NIH/3T3 cells, ShhN 25 nM, SAG 200 nM, purmorphamine, 20-OHC, cyclopamine, GANT61 10 μM, SANT-1, SANT-2 1 μM, 24 hr; for ShhN-dependent translocation of Smo to the primary cilium, antagonist plus ShhN: ShhN 25 nM plus SANT-1 or SANT-2 1 μM or GANT61 10 μM, FIG. 6
T1 construct: expressed in transfected cells; host or cells: NIH/3T3 (mouse fibroblasts), retroviral infection with pBabe-A1::Smo::GFP, clonal lines
T1 sequence (Q99835 28-787): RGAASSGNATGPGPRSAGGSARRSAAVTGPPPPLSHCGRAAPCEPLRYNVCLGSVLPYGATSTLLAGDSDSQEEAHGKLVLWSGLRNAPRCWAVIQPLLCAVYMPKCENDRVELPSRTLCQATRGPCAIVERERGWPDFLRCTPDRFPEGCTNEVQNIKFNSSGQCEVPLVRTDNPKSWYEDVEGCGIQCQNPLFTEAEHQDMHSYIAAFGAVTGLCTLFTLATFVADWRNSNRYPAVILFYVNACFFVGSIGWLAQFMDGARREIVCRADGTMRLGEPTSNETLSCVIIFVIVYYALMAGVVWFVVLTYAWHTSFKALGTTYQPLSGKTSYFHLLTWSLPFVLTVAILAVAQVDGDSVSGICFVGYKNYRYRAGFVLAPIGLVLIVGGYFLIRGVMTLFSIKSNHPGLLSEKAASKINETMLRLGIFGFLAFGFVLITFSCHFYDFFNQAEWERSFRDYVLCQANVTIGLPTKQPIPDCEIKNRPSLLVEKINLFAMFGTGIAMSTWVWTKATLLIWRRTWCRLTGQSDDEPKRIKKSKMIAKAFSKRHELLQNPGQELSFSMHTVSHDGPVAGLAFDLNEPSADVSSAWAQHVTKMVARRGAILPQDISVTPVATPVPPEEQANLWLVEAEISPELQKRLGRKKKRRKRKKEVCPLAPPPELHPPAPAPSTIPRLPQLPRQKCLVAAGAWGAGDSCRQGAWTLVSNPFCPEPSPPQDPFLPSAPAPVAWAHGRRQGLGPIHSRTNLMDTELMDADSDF
Description: All 3T3 cell lines were plated at a density of 1×10^4 cells per well in fibronectin coated Lab-Tek™ Chamber Slides (Nunc, 178599). The cells were grown to confluence, then switched to […] containing 0.5% BCS with indicated treatments for 24 hr or as stated elsewhere herein. Immunostaining was performed after fixation in 4% Paraformaldehyde (PFA) according to standard protocols. AcpS labeling reactions were performed as described previously (Zhou et al., 2007). Fluorescent images were collected after fixing samples using a Zeiss LSM510 META on an inverted microscope, with a 63× (1.4 NA) oil-immersion objective lens utilizing four laser lines (405 nm, 488 nm, 543 nm, 633 nm).
Mouse recombinant ShhN purified protein was purchased from R&D Systems (#464-SH-025). SAG, SANT-2, and GANT61 were purchased from Axxora (#ALX-270-426, #ALX-270-436, #ALX-270-482; Axxora, LLC, San Diego, Calif.). SANT-1 was obtained from Tocris Bioscience (#1974). DMSO was from Sigma Aldrich (D2650). Purmorphamine was from Calbiochem (#540220). […] AcpS, Texas Red-CoA, and Alexa633-CoA were prepared as described previously (Zhou et al., 130 J. Am. Chem. Soc. 9925-30 (2008)).

[2] = tested on: SmoA1; settings: cited from earlier work
[3] = molecular target: Smo (Mus musculus, UniProt P56726); settings: cited from earlier work
Sequence of Smo (Mus musculus, UniProt P56726) (P56726 33-793): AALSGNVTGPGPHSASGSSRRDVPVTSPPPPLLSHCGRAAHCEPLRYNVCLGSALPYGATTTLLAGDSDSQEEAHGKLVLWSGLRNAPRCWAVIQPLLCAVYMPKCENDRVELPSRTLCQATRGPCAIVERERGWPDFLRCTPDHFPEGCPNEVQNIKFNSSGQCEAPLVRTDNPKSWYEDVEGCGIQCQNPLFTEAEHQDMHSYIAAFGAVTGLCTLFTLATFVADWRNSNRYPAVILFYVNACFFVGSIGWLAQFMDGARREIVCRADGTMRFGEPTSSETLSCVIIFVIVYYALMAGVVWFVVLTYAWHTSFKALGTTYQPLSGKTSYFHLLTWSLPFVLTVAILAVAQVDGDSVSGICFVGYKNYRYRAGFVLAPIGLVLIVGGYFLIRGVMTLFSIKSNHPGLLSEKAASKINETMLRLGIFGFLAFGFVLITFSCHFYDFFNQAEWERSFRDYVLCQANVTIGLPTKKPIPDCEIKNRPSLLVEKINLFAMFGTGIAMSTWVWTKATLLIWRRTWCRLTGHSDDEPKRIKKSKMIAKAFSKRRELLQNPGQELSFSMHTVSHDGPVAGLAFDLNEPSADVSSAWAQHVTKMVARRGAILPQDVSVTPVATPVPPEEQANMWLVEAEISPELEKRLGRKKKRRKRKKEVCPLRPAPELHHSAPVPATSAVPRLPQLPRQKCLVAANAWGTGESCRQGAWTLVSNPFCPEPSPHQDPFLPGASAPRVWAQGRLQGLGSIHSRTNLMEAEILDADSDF

[4] = tested on: UV-irradiated Ptch1^+/− mice; settings: prolonged systemic treatment; cited from earlier work
[5] = molecular target: T2, Gli1 (Homo sapiens, UniProt P08151); settings: cited from earlier work
T2 sequence (P08151 1-1106): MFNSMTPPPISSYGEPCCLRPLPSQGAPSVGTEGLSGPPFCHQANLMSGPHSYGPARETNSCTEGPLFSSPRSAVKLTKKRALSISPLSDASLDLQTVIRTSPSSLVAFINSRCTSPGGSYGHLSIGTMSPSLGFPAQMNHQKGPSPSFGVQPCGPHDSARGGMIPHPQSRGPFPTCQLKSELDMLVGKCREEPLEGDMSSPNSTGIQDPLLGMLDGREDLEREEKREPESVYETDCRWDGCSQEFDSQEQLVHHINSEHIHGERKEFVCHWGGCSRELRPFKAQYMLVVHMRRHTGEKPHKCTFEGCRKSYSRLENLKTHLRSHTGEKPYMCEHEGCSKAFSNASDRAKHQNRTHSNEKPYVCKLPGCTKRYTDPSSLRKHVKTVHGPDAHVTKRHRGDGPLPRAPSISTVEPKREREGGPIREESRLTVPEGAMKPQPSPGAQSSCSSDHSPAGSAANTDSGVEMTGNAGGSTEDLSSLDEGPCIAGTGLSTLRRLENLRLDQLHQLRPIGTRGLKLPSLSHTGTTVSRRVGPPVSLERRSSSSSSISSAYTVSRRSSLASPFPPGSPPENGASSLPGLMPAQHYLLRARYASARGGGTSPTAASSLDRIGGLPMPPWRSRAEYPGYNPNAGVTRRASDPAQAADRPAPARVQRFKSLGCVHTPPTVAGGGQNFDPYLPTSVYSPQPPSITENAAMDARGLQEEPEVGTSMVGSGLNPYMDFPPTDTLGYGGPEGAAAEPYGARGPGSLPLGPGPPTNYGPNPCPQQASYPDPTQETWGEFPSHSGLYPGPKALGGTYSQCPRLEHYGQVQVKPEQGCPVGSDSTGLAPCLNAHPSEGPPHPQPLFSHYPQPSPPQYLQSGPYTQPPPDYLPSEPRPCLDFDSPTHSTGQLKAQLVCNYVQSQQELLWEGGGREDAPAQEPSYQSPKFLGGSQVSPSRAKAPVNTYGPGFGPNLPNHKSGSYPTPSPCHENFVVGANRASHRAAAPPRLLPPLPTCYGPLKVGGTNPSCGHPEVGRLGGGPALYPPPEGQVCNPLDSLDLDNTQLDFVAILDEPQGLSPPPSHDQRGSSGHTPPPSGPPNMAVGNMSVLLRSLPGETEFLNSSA

[6] = tested on: Hh signaling; test: Gli-luciferase assay (Ptch1-promoter driven luciferase reporter); assay type: cell-based, mouse; settings: NIH/3T3 cells, RNAi knock down of suFU; FIG. 3
Description: Cells were plated at a density of 5×10^4 per well in 24-well plates 18 hr prior to transfection. DNA transfection was performed using Lipofectamine™ 2000 transfection reagent (Invitrogen, #11668); the DNA introduced in each well included 100 ng CMV driven Renilla luciferase construct, 300 ng Ptch1 promoter-driven firefly luciferase construct, and 400 ng of each shRNA construct or a PBS plasmid as a control. Cells were grown for two days; then the medium was changed to DMEM containing 0.5% BCS and proteins/compounds indicated in the text. Cells were cultured for an additional 48 hr, tryspinized, lysed and assayed using a Promega Dual Luciferase Reporter Essay System Kit (E1910). Renilla luciferase signal was used to normalize the firefly luciferase signal. The RNAi efficiency was measured as previous described (Varjosalo et al., 2006). In all luciferase assays, every condition was repeated in quadruplicate wells and experiments were repeated at least three times.
Mouse recombinant ShhN purified protein was purchased from R&D Systems (#464-SH-025). SAG, SANT-2, and GANT61 were purchased from Axxora (#ALX-270-426, #ALX-270-436, #ALX-270-482; Axxora, LLC, San Diego, Calif.). SANT-1 was obtained from Tocris Bioscience (#1974). DMSO was from Sigma Aldrich (D2650). Purmorphamine was from Calbiochem (#540220). […]

Row | SMILES | Smo translocation to the primary cilium, agent applied alone [1] | ShhN-dependent translocation of Smo to the primary cilium, antagonist plus ShhN [1] | other results
1 | CC(C)CCC[C@](C)(O)[C@H]1CC[C@H]2[C@@H]3CC=C4C[C@@H](O)CC[C@]4(C)[C@H]3CC[C@@]21C [20-OHC, 20α-hydroxycholesterol] | Smo translocated to the primary cilium |  | 
2 | CCOc1cc(C(=O)Nc2ccc(Cl)c(-c3nc4ccccc4[nH]3)c2)cc(OCC)c1OCC [SANT-2] | do not induce obvious localization change of Smo | abrogate the ShhN-dependent translocation of Smo to the primary cilium | Inhibition of SmoA1 activity, dose relative to wild-type Smo [2]: at a comparable dose to that required to inhibit wild-type Smo; Competition for cyclopamine binding of Smo [3]: compete for cyclopamine binding of Smo
3 | CNC1CCC(N(Cc2cccc(-c3ccncc3)c2)C(=O)c2sc3ccccc3c2Cl)CC1 (centres unmarked) [SAG] | Smo translocated to the primary cilium |  | 
4 | CC1=C2C[C@H]3[C@@H](CC=C4C[C@@H](O)CC[C@@]43C)[C@@H]2CC[C@]12O[C@@H]1C[C@H](C)CN[C@H]1[C@H]2C [cyclopamine] | drove Smo to the primary cilium |  | Tumor formation [4]: significantly diminish tumor formation
5 | c1ccc2c(Oc3nc(Nc4ccc(N5CCOCC5)cc4)c4ncn(C5CCCCC5)c4n3)cccc2c1 [purmorphamine] | Smo translocated to the primary cilium |  | 
6 | Cc1nn(-c2ccccc2)c(C)c1/C=N/N1CCN(Cc2ccccc2)CC1 [SANT-1] | do not induce obvious localization change of Smo | abrogate the ShhN-dependent translocation of Smo to the primary cilium | Inhibition of SmoA1 activity, dose relative to wild-type Smo [2]: at a comparable dose to that required to inhibit wild-type Smo; Competition for cyclopamine binding of Smo [3]: compete for cyclopamine binding of Smo
7 | CN(C)c1ccccc1CN1CCCN(Cc2ccccc2N(C)C)C1c1ccncc1 [GANT61] | do not induce obvious localization change of Smo | abrogate the ShhN-dependent translocation of Smo to the primary cilium | Gli1 binding to DNA [5]: inhibits Gli1 binding to DNA; Gli activity when the endogenous Gli antagonist suFU was knocked down [6]: inhibited Gli activity
